Series [1] is described as follows: in vivo. The following applies: mouse, po. How it is done: The compounds according to the present invention are administered intragastrally to male mice (NMRI) with a body weight of from 20 to 25 g. Each dosage group consists of 4 animals. The LD50 values are determined after having observed the animals for 7 days.
The test system of series [2] is guinea pig left ventricle. As to the kind of experiment: Refractory time of electrically stimulated guinea pig left ventricles (organ bath). As to the method:
The left ventricles of guinea pig hearts are electrically stimulated in an organ bath, the amplitude of contraction being recorded. By means of a second stimulus, the time is determined below which the heart muscle no longer reacts with a separately resolvable contraction. This time is defined as the refractory time.
The following Table II contains information concerning the maximum tested compound concentrations, as well as the average prolongation of the refractory time measured at this concentration in comparison with the initial value of, in each case, at least 6 experiments.

Series [3] relates to Rats with calcium chloride induced arrhythmias. As to the kind of experiment: Calcium chloride induced arrhythmias in narcotised rats (prophylactic i.v. administration). Format: in vivo. The following applies: for average period of arrhythmia: control 10.9 min. The source says:
By means of the intravenous infusion of a calcium chloride solution, […] induced in narcotised rats which, after termination of the infusion, continue for a certain period of time (modification of the method described by Malinow et al., Arch. Int. Pharmacodyn, 102, 266/1955). This arrhythmic phase is shortened by the prophylactic administration of antiarrhythmic drugs. […] The results of the experiments with calcium chloride induced arrhythmias on rats are summarized in the following Table I. The average period of arrhythmia is calculated from experiments with at least 10 animals.

Series [4] deals with rabbit eye. As to the kind of experiment: Local anesthetic action on the rabbit eye (corneal reflex). Format: in vivo, rabbits. Particulars: for Period of Action: observation discontinued after 60 minutes. How it is done:
The corneal reflex is induced in rabbits using a horse hair which bends with a pressure of about 250 mg (modification of the method described by M. von Frey, Beitrage zur Physiologie des Schmerzsinns, Vehr. d. Kgl. Sachs, Ges. d. Wiss. zu Leipzig, Math.-phys. Kl., 46, 185/1894; Untersuchungen uber die Sinnesfunktionen der menschlichen Haut, Leipzig, 1896). After instillation of local anesthetics into the conjunctival sac of the eye, the number of impacts with the horse hair which result in closure of the eyelid is increased. At intervals of 4 minutes, in each case a maximum of 100 successive impacts are carried out and such an action is taken as being 100%. The period of investigation is at most 60 minutes. The action of the compounds according to the present invention is compared with that of tetracaine and procainamide.
The following Table VII contains the results of the experiments on the rabbit eye. There are also given, in addition to the concentrations of the test solutions which were instilled into the conjunctival sac, the actions of the compounds in % (see description of the method), as well as their period of action. In each case, the observations were discontinued after 60 minutes.

The subject of series [5] is dogs with coronary ligature. In words: Coronary ligature on dogs (period of sinus rhythm from ECG). Format: in vivo. The source says: Using narcotised dogs, after thoracotomy, a coronary artery (side branch of the R. interventr. post. or of the R. circumflexus) is ligatured (see. A. S. Harris, Circulation, 1, 1318/1950). The heart rhythm disturbances which occur as a result thereof are, on the day following the operation, recorded on the awake animals and treated with the compounds according to the present invention by intragastral and intravenous administration. Procainamide is used as a positive standard. From the ECG, the time is determined in which, after administration of the test compound, a sinus rhythm can be recognized.
The compounds of Examples 1 (Table III), 4 (Table IV) and 10 (Table V) were tested on dogs with a coronary ligature. All the compounds were, in each case, tested on at least 5 animals.

Setting [6] is: Oryctolagus cuniculus, topical, concentration 1.0 %.
[7] abbreviates: Oryctolagus cuniculus, topical, concentration 0.5 %.
[8] abbreviates: Oryctolagus cuniculus, topical, concentration 0.1 %.
Where [9] appears, read: Oryctolagus cuniculus, topical, concentration 2.0 %.

Consider `COc1ccc2c(c1)-c1c(ccc(OC)c1OC)CC(Cc1ccccc1)N(C)CC2` (racemic) [Example 5, (±)-6-Benzyl-7-methyl-5,6;8,9-tetrahydro-1,2,12-trimethoxy-7H-dibenz(d,f)azonine], for which, in series [1], the median lethal dose (LD50) – broadly, the dose at which mortality reaches 50% – at 168 h was roughly 1000 mg/kg. Moreover, in series [2] (4.0 × 10^-6 g/ml in the bath), the “average prolongation of the refractory time” value (from here on “average prolongation”) amounted to 25 ms. For the same compound, in series [3] (5 mg/kg I.V.), the “average period of arrhythmia” value is 4.1 min. Further, in series [4] (setting [6]), the inhibition in vivo (in general, the share of the control response that was lost under treatment) at 1 % came to 100%. Besides, in series [4] (concentration 1.0 %), the “Period of Action” value was greater than 60 min.

On to `COc1cccc(CC2Cc3ccc(OC)c(OC(C)=O)c3-c3cc(OC)ccc3CCN2C)c1` (single isomer, unassigned; (-)) [Example 7, (-)-1-Acetoxy-6-(3'-methoxybenzyl)-7-methyl-5,6;8,9-tetrahydro-2,12-dimethoxy-7H-dibenz(d,f)azonine], for which the LD50 at 168 h in series [1] was 900 mg/kg. In series [2] (4.0 × 10^-6 g/ml in the bath), the “average prolongation” value came to 18 ms. Further, in series [3] (4 mg/kg I.V.), the “average period of arrhythmia” value worked out at 4.1 min. Besides, the inhibition in vivo at 0.5 % in series [4] (setting [7]) turned out to be 63%. This compound also registered an inhibition in vivo at 1 % in series [4] (setting [6]) of 100%. The “Period of Action” value in series [4] (concentration 0.5 %) and in series [4] (concentration 1.0 %) was greater than 60 min throughout.

Turning to `COc1ccc2c(c1)-c1c(ccc(OC)c1O)CC(Cc1cccc(C)c1)N(C)CC2` (single isomer, unassigned; (-)) [Example 12, (-)-6-(3'-Methylbenzyl)-2,12-dimethoxy-7-methyl-1-hydroxy-5,6;8,9-tetrahydro-7H-dibenz(d,f)azonine], the LD50 at 168 h in series [1] turned out to be 1200 mg/kg. Further, the “average prolongation” value in series [2] (6.4 × 10^-5 g/ml in the bath) was 51 ms. Further, the “average period of arrhythmia” value in series [3] (5 mg/kg I.V.) was determined as 6.4 min. In series [4] (setting [8]), the inhibition in vivo at 0.1 % came out at 68%. In series [4] (Oryctolagus cuniculus, topical, concentration 0.25 %), the inhibition in vivo at 0.25 % is 100%. Besides, the results for the “Period of Action” value in series [4] (concentration 0.1 %) and in series [4] (concentration 0.25 %) were “about 56 Min” and greater than 60 min, respectively.

Compound `COc1ccc2c(c1)-c1c(ccc(OC)c1OC(C)=O)CC(Cc1ccccc1)N(C)CC2` (single isomer, unassigned; (-)) [Example 8, (-)-1-Acetoxy-6-benzyl-2,12-dimethoxy-7-methyl-5,6;8,9-tetrahydro-7H-dibenz(d,f)azonine] displayed a median lethal dose (LD50) at 168 h in series [1] of 1200 mg/kg. The “average prolongation” value in series [2] (4.0 × 10^-6 g/ml in the bath) is given as 21 ms. The “average period of arrhythmia” value in series [3] (4 mg/kg I.V.) is 5.7 min. Besides, the inhibition in vivo at 0.5 % in series [4] (setting [7]) is 74%. The compound also showed an inhibition in vivo at 2 % in series [4] (setting [9]) of 100%. For the same compound, the “Period of Action” value in series [4] (concentration 0.5 %) and in series [4] (concentration 2.0 %) was greater than 60 min throughout.

`COc1ccc2c(c1)-c1c(ccc(OC)c1O)CC(Cc1ccccc1Cl)N(C)CC2` (single isomer, unassigned; (-)) [Example 4, (-)-6-(2'-Chlorobenzyl)-2,12-dimethoxy-hydroxy-7-methyl-5,6;8,9-tetrahydro-7H-dibenz(d,f)azonine]: the “average period of eurhythmia” value in series [5] (4 mg/kg i.v.) came out at 68 min; in series [5] (40 mg/kg i.g.), 91 min; in series [5] (60 mg/kg i.g.) it was 103 min; in series [5] (80 mg/kg i.g.), 139 min. This compound returned a 50% lethal dose (LD50) at 168 h in series [1] of 1200 mg/kg. Also, the “average prolongation” value in series [2] (1.6 × 10^-5 g/ml in the bath) came out at 21 ms. The “average period of arrhythmia” value was 4.6 min in series [3] (5 mg/kg I.V.) and 2.3 min in series [3] (10 mg/kg I.V.).

`O=C1NC(=O)C(c2ccccc2)(c2ccccc2)N1` [phenytoin, reference compound]: the “average prolongation” value in series [2] (1.6 × 10^-5 g/ml in the bath) was -6 ms. The “average period of arrhythmia” value in series [3] (20 mg/kg I.V.) worked out at 16.5 min.

Regarding `COc1ccc(CCN(C)CCCC(C#N)(c2ccc(OC)c(OC)c2)C(C)C)cc1OC` (stereo not drawn) [Verapamil, verapamil, reference compound], the “average prolongation” value in series [2] (1.6 × 10^-5 g/ml in the bath) is on record as 16 ms.

For `COc1cccc(CC2Cc3ccc(OC)c(OC)c3-c3cc(OC)ccc3CCN2C)c1` (single isomer, unassigned; (-)) [Example 6, (-)-6-(3'-Methoxybenzyl)-7-methyl-5,6;8,9-tetrahydro-1,2,12-trimethoxy-7H-dibenz(d,f)azonine], the LD50 at 168 h in series [1] is roughly 300 mg/kg. In addition, in series [3] (4 mg/kg I.V.), the “average period of arrhythmia” value turned out to be 4.6 min. The inhibition in vivo at 1 % in series [4] (setting [6]) was found to be 79%. In addition, the inhibition in vivo at 2 % in series [4] (setting [9]) is 100%. In addition, the “Period of Action” value in series [4] (concentration 1.0 %) and in series [4] (concentration 2.0 %) was greater than 60 min throughout.

In turn, `CCCCNc1ccc(C(=O)OCCN(C)C)cc1` [tetracaine, reference compound] had an inhibition in vivo at 0.1 % in series [4] (setting [8]) of 100%. In addition, in series [4] (concentration 0.1 %), the “Period of Action” value is on record as “about 44 Min”. In series [4] (concentration not given there), the “duration of maximum activity strength” value stood at 44 min and the maximum activity strength is listed as 100%.

Regarding `COc1cccc(CC2Cc3ccc(OC)c(O)c3-c3cc(OC)ccc3CCN2C)c1` (single isomer, unassigned; (-)) [Example 2, (-)-6-(3'-Methoxybenzyl)-2,12-dimethoxy-1-hydroxy-7-methyl-5,6;8,9-tetrahydro-7H-dibenz(d,f)azonine], in series [1], the 50% lethal dose (LD50) at 168 h was found to be 1000 mg/kg. For the same compound, in series [2] (8.0 × 10^-6 g/ml in the bath), the “average prolongation” value came to 46 ms. In addition, the “average period of arrhythmia” value in series [3] (10 mg/kg I.V.) is 4.9 min. In series [4] (setting [8]), this compound showed an inhibition in vivo at 0.1 % of 78%. In series [4] (setting [7]), the inhibition in vivo at 0.5 % was determined as 100%. For the same compound, the inhibition in vivo at 1 % in series [4] (setting [6]) was determined as 100%. Further, the figures for the “Period of Action” value in series [4] (concentration 0.1 %), in series [4] (concentration 0.5 %) and in series [4] (concentration 1.0 %) were 46 min, “about 52 Min” and greater than 60 min, respectively.

With `COc1ccc2c(c1)-c1c(ccc(OC)c1O)CC(Cc1c(Cl)cccc1Cl)N(C)CC2` (single isomer, unassigned; (-)) [Example 11, (-)-6-(2',6'-Dichlorobenzyl)-2,12-dimethoxy-7-methyl-1-hydroxy-5,6;8,9-tetrahydro-7H-dibenz(d,f)azonine], the LD50 at 168 h in series [1] is greater than 1600 mg/kg. In addition, the “average prolongation” value in series [2] (3.2 × 10^-5 g/ml in the bath) was determined as 29 ms. In addition, the “average period of arrhythmia” value in series [3] (8 mg/kg I.V.) was found to be 7.7 min. Further, the “antiarrhythmic action / period of arrhythmia (in words)” value in series [3] (in comparison with control animals or procainamide) is given as “just as good”. Also, in series [4] (setting [6]), the inhibition in vivo at 1 % was determined as 55%. The compound further had an inhibition in vivo at 2 % in series [4] (setting [9]) of 100%. Moreover, the “Period of Action” value in series [4] (concentration 1.0 %) and in series [4] (concentration 2.0 %) was greater than 60 min in each case.

Turning to `COc1ccc2c(c1)-c1c(ccc(OC)c1O)CC(Cc1ccccc1)NCC2` (stereo not drawn) [Example 9, 6-Benzyl-2,12-dimethoxy-1-hydroxy-5,6;8,9-tetrahydro-7H-dibenz(d,f)azonine], the “average prolongation” value in series [2] (1.6 × 10^-5 g/ml in the bath) is on record as 27 ms. The “average period of arrhythmia” value in series [3] (5 mg/kg I.V.) amounted to 6.8 min.

Consider `CC[C@H]1[C@@H]2C[C@H]3[C@@H]4N(C)c5ccccc5[C@]45C[C@@H]([C@H]2[C@H]5O)N3[C@@H]1O` [Ajmaline, ajmaline, reference compound], for which the “average prolongation” value in series [2] (1.6 × 10^-5 g/ml in the bath) is listed as 16 ms.

For the compound `COc1ccc2c(c1)-c1c(ccc(OC)c1O)CC(Cc1ccc(F)cc1)N(C)CC2` (single isomer, unassigned; (-)) [Example 3, (-)-6-(4'-Fluorobenzyl)-2,12-dimethoxy-1-hydroxy-7-methyl-5,6;8,9-tetrahydro-7H-dibenz(d,f)azonine], the median lethal dose (LD50) at 168 h in series [1] was determined as 600 mg/kg. For the same compound, in series [2] (1.6 × 10^-5 g/ml in the bath), the “average prolongation” value came out at 29 ms. For the same compound, the “average period of arrhythmia” value in series [3] (10 mg/kg I.V.) came to 5.4 min. The compound further showed an inhibition in vivo at 0.5 % in series [4] (setting [7]) of 100%. Also, in series [4] (concentration 0.5 %), the “Period of Action” value is greater than 60 min.

The values above are taken from patent publication US4415495A, “5,6;8,9-Tetrahydro-7H-dibenz(d,f)azonines” (Godecke Aktiengesellschaft, priority 1981, dated 1983).
